{
  "source": "patent US5775339A",
  "about": "“Photodynamic therapy of pigment-related lesions” (Pharmacyclics, Inc., priority 1997, dated 1998)",
  "key": {"[1]": {"assay": "Absorption of LuT2BET in 5% mannitol", "assay_type": "physicochemical", "conditions": "732 nm", "protocol": "LuT2BET: The synthesis and chemical analysis of lutetium texaphyrin (LuT2BET, texaphyrin A2 of Table 1 where M is lutetium) was provided in U.S. Pat. Nos. 5,252,720 and 5,457,183 and in PCT publication WO 95/10307. LuT2BET was dissolved in 5% mannitol at a 2 mM concentration. LuT2BET absorbs strongly in the far-red region of the electromagnetic spectrum, having a molar extinction coefficient of 23,000 M^-1 cm^-1 in this solution at 732 nm, the wavelength used for photoirradiation."}, "[2]": {"tested_on": "melanoma", "assay_type": "in vivo, human", "conditions": "0.5 μmol/kg i.v., 150 J/cm^2", "protocol": "A patient with recurrent melanoma received a single dose of LuT2BET (0.5 μmol/kg; 2 mM in 5% mannitol/water; (a human equivalent of 10% of the mouse LD50)), administered intravenously, followed three hours later by photoirradiation by laser (732 nm light, 150 J/cm^2 at a power density of 75 mW/cm^2 using a LAMBDA PLUS® laser, Coherent, Palo Alto, Calif.). Four fields and a total of ten individual lesions were treated."}, "[3]": {"tested_on": "mammary carcinoma SMT-F", "assay": "Radiolabeled [14C]-LuT2BET uptake in SMT-F bearing mice", "assay_type": "in vivo", "conditions": "8.64 μmol/kg; for drug uptake (tumor): radiolabeled", "protocol": "A dose of 8.64 μmol/kg LuT2BET produced drug uptake values of 5.1 μg/g, 4.7 μg/g, and 2.8 μg/g at 3 h, 5 h, and 24 h after injection, yielding tumor:muscle ratios of 8.45:1, 10:1 and 7:1, respectively."}, "[4]": {"tested_on": "B16F10 melanoma", "assay": "PDT response (tumor regrowth and survival) to LuT2BET and photoirradiation in melanoma-bearing mice", "assay_type": "in vivo, C57 mice", "protocol": "(§1) Melanoma Cells: B16F10 melanotic melanoma murine cells were obtained from the University of California, San Francisco Cell Culture Facility. These cells are highly pigmented and metastatic in vivo. Cells were grown in Iscove's Modified Dulbeccos' Medium (Gibco, Grand Island, N.Y.) supplemented with 10% fetal bovine serum (JRH Biosciences, Woodland, Calif.) and penicillin/streptomycin (Sigma, St. Louis, Mo.).\n(§2) Animals and Tumor Model: Inbred C57BL/6N female mice, (C57 mice) seven to eight weeks of age, were obtained from Simonsen Laboratories Inc. (Gilroy, Calif.). The right flanks of the mice were shaved and depiled the day prior to tumor inoculation. B16F10 cells (5×10^5 cells in 0.05 mL PBS) were injected subcutaneously into the right hind flanks. Tumor size, i.e., length (l), width (w), and height (h), was measured 3 times a week with a vernier caliper. Tumor volumes were calculated using the formula for a hemiellipsoid (Rockwell and Kallman, 1972): […]\nStatistical analysis: Values are expressed as mean±SD. Values were compared using the unpaired Student's t-test. In the longevity analysis, Kaplan-Meier survival curves and log rank analysis for statistical significance were used. Statistical significance was assumed if P<0.05.\nThe present example provides results of a study wherein melanoma-bearing mice were administered LuT2BET and photoirradiated. […] PDT response was dependent upon drug dose, irradiation exposure and administration time.\nPDT Protocol: C57 mice, bearing B16F10 melanoma as described in Example 1, were used for PDT experiments when the tumors reached surface diameters of between 4-6 mm and a depth of 2.5-3 mm. […] A 400 μm diameter fiberoptic cable coupled the laser to a microlens which produced uniform light intensity in the treatment field. Light fluences ranged between 150 and 600 J/cm^2, and the power density was set at 150 mW/cm^2 as measured with a power meter (Scientech, Boulder, Colo.). The mice were restrained with laboratory tape during photoirradiation."}, "[5]": {"assay": "Biodistribution of LuT2BET in B16 melanoma-bearing mice (fluorescence of tissue extracts and plasma)", "assay_type": "in vivo, C57 mice", "protocol": "The present example provides results from a study of the biodistribution of lutetium texaphyrin in melanoma-bearing mice. The biodistribution of LuT2BET was analyzed in C57 mice bearing B16 melanoma at 3 h, 5 h, and 24 h after an intravenous administration of 10 or 20 μmol/kg.\nas §1, §2\nBiodistribution studies were performed on tumors having surface diameters of between about 5.5-7 mm and a depth of 4-6 mm.\nTissue Extraction Procedure: LuT2BET was administered via tail-vein injection at 10 or 20 μmol/kg. Tissues and plasma were analyzed at 3, 5 or 24 h post administration of the photosensitizer. Blood was collected in tubes containing 5 mg of solid EDTA and erythrocytes were removed by centrifugation. Plasma samples (125 μL) were mixed with 10 mM TRITON X-100® and analyzed for texaphyrin content by fluorescence. […] Samples were then analyzed for lutetium texaphyrin content by fluorescence (excitation=450 nm, emission=700-800 nm). […] Sensitizer accumulation is expressed as μg drug/g tissue (wet weight) or per mL plasma.\nStatistical analysis: Values are expressed as mean±SD. […]"}, "[6]": {"set-up": "species or system C57 mice", "conditions": "mouse, in vivo", "source_text": "Tumor Temperature Measurements: Tumor temperature during laser irradiation was monitored with a 33 gauge hypodermic thermocouple probe (Omega Engineering, Stamford, Conn.) placed percutaneously at the base of the tumor."}, "[7]": {"tested_on": "B16 murine melanoma", "conditions": "B16 murine melanoma model; cited from earlier work"}, "[8]": {"conditions": "10 μmol/kg, 300 J/cm^2, 5 h, n = 6"}, "[9]": {"conditions": "10 μmol/kg, 500 J/cm^2, 5 h, n = 11"}, "[10]": {"conditions": "20 μmol/kg, 150 J/cm^2, 24 h, n = 7"}, "[11]": {"conditions": "20 μmol/kg, 300 J/cm^2, 24 h, n = 7"}},
  "note": "Several values for one entry are separate records, joined by “and”; a condition that tells them apart may be missing. Equal values may be shown once. Entries after “also recorded” stand apart in the source; their conditions may differ.",
  "data": [
    {"compound": "CC(=O)[O-].CC(=O)[O-].CCc1c(CC)c2cc3nc(cnc4cc(OCCOCCOCCOC)c(OCCOCCOCCOC)cc4ncc4nc(cc1[n-]2)C(CCCO)=C4C)C(C)=C3CCCO.O.[Lu+3]", "note": "[LuT2BET]", "values": [
      {"measurement": "molar extinction coefficient", "setting": "[1]", "result": "23,000 M^-1 cm^-1"},
      {"measurement": "response of remaining lesions", "setting": "[2]; several days post-therapy", "result": "the remaining lesions showed no change"},
      {"measurement": "response of several larger lesions", "setting": "[2]; several days post-therapy", "result": "several of the larger lesions had decreased in size"},
      {"measurement": "response of several smaller lesions", "setting": "[2]; several days post-therapy", "result": "several of the smaller lesions had disappeared"},
      {"measurement": "response of lesions at two months", "setting": "[2]; two months post-therapy", "result": "continued to show improvement"},
      {"measurement": "tumor:muscle ratio", "setting": "[3]; 3 h", "result": "8.45 :1"},
      {"measurement": "drug uptake (tumor)", "setting": "[3]; 3 h", "result": 5.1, "unit": "µg/g"},
      {"measurement": "tumor:muscle ratio", "setting": "[3]; 5 h", "result": "10 :1"},
      {"measurement": "drug uptake (tumor)", "setting": "[3]; 5 h", "result": 4.7, "unit": "µg/g"},
      {"measurement": "tumor:muscle ratio", "setting": "[3]; 24 h", "result": "7 :1"},
      {"measurement": "drug uptake (tumor)", "setting": "[3]; 24 h", "result": 2.8, "unit": "µg/g"},
      {"measurement": "MST (median survival time following PDT)", "setting": "[4]; 10 μmol/kg, 150 J/cm^2, 3 h, n = 3", "result": 23, "unit": "days"},
      {"measurement": "Regrowth (time to reach ten times the original tumor volume)", "setting": "[4]; 10 μmol/kg, 150 J/cm^2, 3 h, n = 12", "result": "15.0 ± 3.38", "unit": "days"},
      {"measurement": "inhibition of tumor regrowth, in words", "setting": "[4]; 10 μmol/kg, 300 J/cm^2, 5 h", "result": "no detectable inhibition of tumor regrowth was seen"},
      {"measurement": "MST (median survival time following PDT)", "setting": "[4]; [8]", "result": 17, "unit": "days"},
      {"measurement": "Regrowth (time to reach ten times the original tumor volume)", "setting": "[4]; [8]", "result": "8.5 ± 3.0 days and 8.5 days"},
      {"measurement": "PDT effect, in words", "setting": "[4]; 10 μmol/kg, 400, 500 and 600 J/cm^2, 5 h", "result": "significantly increased the PDT effect"},
      {"measurement": "Regrowth (time to reach ten times the original tumor volume)", "setting": "[4]; 10 μmol/kg, 400 J/cm^2, 5 h, n = 7", "result": "11.6 ± 2.1", "unit": "days"},
      {"measurement": "MST (median survival time following PDT)", "setting": "[4]; 10 μmol/kg, 400 J/cm^2, 5 h, n = 8", "result": 18.5, "unit": "days"},
      {"measurement": "MST (median survival time following PDT)", "setting": "[4]; [9]", "result": 23, "unit": "days"},
      {"measurement": "Regrowth (time to reach ten times the original tumor volume)", "setting": "[4]; [9]", "result": "13.2 ± 3.5", "unit": "days"},
      {"measurement": "Regrowth (time to reach ten times the original tumor volume)", "setting": "[4]; 10 μmol/kg, 600 J/cm^2, 5 h, n = 5, P<0.0001", "result": "15.6 ± 3.6 days and 15.6 days"},
      {"measurement": "MST (median survival time following PDT)", "setting": "[4]; 10 μmol/kg, 600 J/cm^2, 5 h, n = 6", "result": 28, "unit": "days"},
      {"measurement": "survival time, in words", "setting": "[4]; 10 μmol/kg, at least about 500 J/cm^2", "result": "A significant increase in survival time"},
      {"measurement": "Regrowth (time to reach ten times the original tumor volume)", "setting": "[4]; 10 μmol/kg, no light, n = 5", "result": "7.8 ± 0.8", "unit": "days"},
      {"measurement": "MST (median survival time following PDT)", "setting": "[4]; 10 μmol/kg, no light, n = 6", "result": 17.5, "unit": "days"},
      {"measurement": "Regrowth (time to reach ten times the original tumor volume)", "setting": "[4]; 20 μmol/kg, 150 J/cm^2, 5 h, n = 8", "result": "10.6 ± 2.9", "unit": "days"},
      {"measurement": "MST (median survival time following PDT)", "setting": "[4]; 20 μmol/kg, 150 J/cm^2, 5 h, n = 8, P=0.011", "result": 26, "unit": "days"},
      {"measurement": "tumor regrowth, in words", "setting": "[4]; 20 μmol/kg, 150 J/cm^2, 24 h", "result": "did not yield any significant change in tumor regrowth"},
      {"measurement": "MST (median survival time following PDT)", "setting": "[4]; [10]", "result": 19, "unit": "days"},
      {"measurement": "Regrowth (time to reach ten times the original tumor volume)", "setting": "[4]; [10]", "result": "6.7 ± 0.8", "unit": "days"},
      {"measurement": "survival time, in words", "setting": "[4]; 20 μmol/kg, 150 and 300 J/cm^2, 5 h", "result": "A significant increase in survival time"},
      {"measurement": "Regrowth (time to reach ten times the original tumor volume)", "setting": "[4]; 20 μmol/kg, 300 J/cm^2, 5 h, n = 13", "result": "15.3 ± 2.6 days and 15.3 days"},
      {"measurement": "MST (median survival time following PDT)", "setting": "[4]; 20 μmol/kg, 300 J/cm^2, 5 h, n = 13, P=0.0002", "result": 27, "unit": "days"},
      {"measurement": "MST (median survival time following PDT)", "setting": "[4]; [11]", "result": 20, "unit": "days"},
      {"measurement": "Regrowth (time to reach ten times the original tumor volume)", "setting": "[4]; [11]", "result": "9.6 ± 2.1 days and 9.6 days"},
      {"measurement": "tumor response, in words", "setting": "[4]; 20 μmol/kg, irradiated 5 h after administration, P<0.001", "result": "A significant response"},
      {"measurement": "MST (median survival time following PDT)", "setting": "[4]; 20 μmol/kg, no light, n = 5", "result": 15, "unit": "days"},
      {"measurement": "Regrowth (time to reach ten times the original tumor volume)", "setting": "[4]; 20 μmol/kg, no light, n = 5", "result": "8.2 ± 2.3", "unit": "days"},
      {"measurement": "tumor regrowth, in words", "setting": "[4]; 20 μmol/kg, sensitizer alone", "result": "No significant difference in tumor regrowth"},
      {"measurement": "survival time, in words", "setting": "[4]; LuT2BET alone, 10 and 20 μmol/kg, vs controls", "result": "no apparent difference between light alone, LuT2BET alone, and the controls"},
      {"measurement": "longevity / survival time overall, in words", "setting": "[4]; PDT, 10 or 20 μmol/kg", "result": "increased longevity of the treated animals; also recorded: in some cases the longevity of the animals was doubled; also recorded: significantly increased the survival time of the melanoma-bearing mice"},
      {"measurement": "retardation of tumor growth overall, in words", "setting": "[4]; PDT, 10 or 20 μmol/kg", "result": "significant retardation of growth of the tumor; also recorded: efficacious in the retardation of the highly pigmented B16 melanoma in C57 mice"},
      {"measurement": "toxicity", "setting": "[5]; 10 or 20 μmol/kg i.v., biodistribution study", "result": "no toxicity was observed"},
      {"measurement": "tumor levels compared with plasma, muscle and skin", "setting": "[5]; mouse, in vivo", "result": "higher than plasma, muscle and skin at all three time points"},
      {"measurement": "uptake into B16 melanoma compared to SMT-F", "setting": "[5]; mouse, in vivo", "result": "increased uptake of lutetium texaphyrin into B16 melanoma was observed"},
      {"measurement": "increase in tumor temperature", "setting": "[6]", "result": "No measurable increase in tumor temperature"}
    ]},
    {"compound": "silicon(IV)-naphthalocyanine", "values": [
      {"measurement": "tumor retardation not associated with thermal effects", "setting": "[7]", "result": "modest"},
      {"measurement": "tumor selectivity", "setting": "[7]", "result": "no tumor selectivity"}
    ]}
  ]
}
